Measured values from patent publication US20060263761A1, “Methods and compositions for beryllium-induced Disease” (priority 2005, published 2006).

Assays:
Format in all cases: cell-based, human
[1] = system: PBMCs (IFN-γ-producing cells); test: IFN-γ ELISPOT assay on PBMCs after BeSO4 exposure; conditions: for ratio of IFN-γ- to IL-2-secreting cells (median): ELISPOT; for subjects demonstrating beryllium-induced IFN-γ production: threshold >1.4 SFU
Method: (§1) In one exemplary method, ELISPOT assays were performed using plates (ImmunoSpot M200, BD Biosciences Pharmingen) that were coated with, IFN-γ or IL-2 capture mAb (BD Biosciences Pharmingen) overnight and blocked with Blocking Solution containing RPMI 1640 supplemented with 10% heat-inactivated fetal bovine serum (Tissue Culture Biologicals, Tulare Calif.), 20 mM HEPES, 1 mM sodium pyruvate, 100 U/ml penicillin, 100 μg/ml streptomycin, and 2 mM L-glutamine (e.g. all from Life Technologies, Gaithersburg Md.) for 2 h at room temperature. Freshly isolated PBMCs (5×10^5 cells/well) were added to wells and incubated overnight at 37° C. in a humidified 5% CO2 atmosphere with medium, PHA, or BeSO4. ELISpot assays were performed in triplicate. The wells were washed, and IFN-γ or IL-2 detection mAbs (BD Biosciences Pharmingen) were added, and the proteins were visualized by successive additions of avidin-horseradish peroxidase and 3-amino-9-ethylcarbazole (AEC) substrate reagent (BD Biosciences Pharmingen). The ELISpot plates were analyzed using a for example a CTL Immunospot Analyzer (Cellular Technology Ltd., Cleveland, Ohio), and results are reported as mean±SD spot-forming units (SFU) per well minus background SFU.
In one exemplary method ELISPOT assays were performed on fresh PBMCs from 12 healthy control, 18 BeS and 33 CBD subjects (Table 1).

[2] = system: PBMCs (IL-2-producing cells); test: IL-2 ELISPOT assay on PBMCs after BeSO4 exposure
Method: as §1

PBMCs = test: Lymphocyte proliferation assay ([3H]thymidine, BeLPT)
Method: In one exemplary method, proliferation assays were performed using PBMCs (2.5×10^5 cells/well) cultured for 4-6 days in complete culture media containing RPMI 1640 supplemented with 10% heat-inactivated human serum (Gemini Bio-Products, Woodland Calif.) with the following stimulants: medium, 2.5 μg/ml phytohemagglutinin (PHA), 1×10^−4 M or 1×10^−5 M BeSO4 (example of one beryllium composition). The wells were pulsed with 1 μCi of [^3H] thymidine for 18 hours, and incorporation of radioactivity was determined by β-emission spectroscopy. Proliferation assays were performed in quadruplicate. The data are presented as stimulation index (SI) with a positive response defined as […]. Any other means known in the art for assessing proliferation of cells may be used.
In another exemplary method, PBMCs from healthy control, BeS, and CBD subjects described above were examined for beryllium-induced proliferation at the same time as the ELISPOT assays were performed. […] The median SI for PBMCs from BeS and CBD patients exposed to 1×10^−4 M BeSO4 was 2.8 (range, 0.5-42) and 3.5 (0.6-85) (P=0.49), respectively. The findings were similar when expressed as ΔCPM, with the median ΔCPM from BeS and CBD patients exposed to 1×10^−4 M BeSO4 being 917 (range, 0-36,355) and 1514 (range, 0-20,884), respectively (P=0.85). […] In one exemplary method, ELISPOT analysis for IFN-γ was able to detect the presence of beryllium-specific T cells in blood. […] In 6 BeS and 7 CBD subjects, the ELISPOT assay detected IFN-γ- and/or IL-2-secreting cells in response to beryllium exposure in culture while no beryllium-induced proliferation was detected at the time of the study. […] For example, in CBD patients, the median number of beryllium-induced, IFN-γ-expressing cells was 83 SFU (range, 0-645) in subjects with and 48 SFU (range, 10-112; P=0.3) in subjects without beryllium-induced proliferation. Beryllium-induced proliferation occurred in the absence of detectable cytokine secretion in only 2 CBD patients, while both ELISPOT analysis and proliferation assay were negative in 2 BeS and 3 CBD patients.

CD4+ T cells = test: Intracellular cytokine staining (IFN-γ, IL-2) by flow cytometry
Method: . Cells were stained with mAbs directed against CD4 and CD8 (BD Biosciences Pharmingen) followed by fixation, permeabilization, and staining with mAbs directed against IFN-γ and/or IL-2 (Caltag, Burlingame, Calif.). The lymphocyte population was identified using forward and 90° light scatter patterns, and fluorescence intensity was analyzed using a FACScaliber cytometer (Becton Dickinson) as previously described but any means known in the art may be used to identify this population.
For example, the ratio of IFN-γ- to IL-2-secreting cells determined by ELISPOT analysis was 2.7 (median; range, 0.5-167) for CBD patients (n=33) and 1.8 (median; range, 0.5-6.9) for BeS patients (n=18) (P=0.07). To further address this issue, intracellular cytokine staining was performed on blood from 11 of the 33 CBD subjects who had large enough populations (>0.04%) of circulating beryllium-specific CD4+ T cells to allow for evaluation of Th1-type cytokine expression after beryllium exposure in culture. […] IFN-γ and IL-2 expression in CD4− T cells was equal to background levels. In the peripheral blood, the beryllium-specific CD4+ T cells appeared equally divided into two groups: T cells capable of expressing both IFN-γ and IL 2 and another expressing only IFN-γ (FIG. 4B). Similar to T cells in the lung (12), almost no cells were detected that produced IL-2 in the absence of IFN-γ expression. In these eleven CBD patients, the median percentage of IFN-γ-expressing CD4+ T cells was 0.29% (range, 0.1%-1.1%) compared to 0.07% for IL-2 (0%-0.49%; P=0.007) (FIG. 4C).

[3] = representative CBD subject, FIG. 4A, following beryllium exposure

SMILES: O=S(=O)([O-])[O-].[Be+2] [BeSO4, Beryllium sulfate]
- ratio of IFN-γ- to IL-2-secreting cells (median) ([1]; BeS patients (n=18)): 1.8
- median number of IFN-γ producing cells in blood ([1]; BeS subjects (n=18), 1×10^−4 M BeSO4): 6.3 SFU
- subjects demonstrating beryllium-induced IFN-γ production ([1]; BeS subjects, 13 of 18, 1×10^−4 M BeSO4): 72%
- patients with a positive ELISPOT assay ([1]; CBD and BeS subjects, 41 of 51): 80%
- median number of IFN-γ producing cells in blood ([1]; CBD patients (n=33), 1×10^−4 M BeSO4): 52 SFU
- ratio of IFN-γ- to IL-2-secreting cells (median) ([1]; CBD patients (n=33)): 2.7
- median number of beryllium-induced, IFN-γ-expressing cells ([1]; CBD patients with beryllium-induced proliferation): 83 SFU
- median number of beryllium-induced, IFN-γ-expressing cells ([1]; CBD patients without beryllium-induced proliferation): 48 SFU
- subjects demonstrating beryllium-induced IFN-γ production ([1]; CBD subjects, 28 of 33, 1×10^−4 M BeSO4): 85%
- IFN-γ SFU (mean±SD) of the one healthy control with a positive response ([1]; healthy control subject, 1×10^−4 M BeSO4): 2.0±2.1 SFU per 5×10^5 cells
- median number of IFN-γ producing cells in blood ([1]; normal control subjects (n=12), 1×10^−4 M BeSO4): 0.4 SFU
- median number of IFN-γ producing cells in blood ([1]; treated CBD subjects, 1×10^−4 M BeSO4): 117
- median number of IFN-γ producing cells in blood ([1]; untreated CBD subjects, 1×10^−4 M BeSO4): 34
- median number of IL-2-producing cells ([2]; BeS subjects): 2.8 SFU
- median number of IL-2-producing cells ([2]; CBD patients): 16 SFU/5×10^5 cells
- median number of IL-2-producing cells ([2]; normal control subjects): 0 SFU
- patients with a positive proliferative response (PBMCs; BeS patients, 10 of 18, 1×10^−4 M BeSO4): 55%
- median SI (stimulation index) (PBMCs; BeS patients, 1×10^−4 M BeSO4): 2.8
- median ΔCPM (PBMCs; BeS patients, 1×10^−4 M BeSO4): 917
- subjects with a positive beryllium-induced proliferative response (BeLPT) (PBMCs; CBD and BeS subjects, 33 of 51): 65%
- patients with a positive proliferative response (PBMCs; CBD patients, 23 of 33, 1×10^−4 M BeSO4): 70%
- median SI (stimulation index) (PBMCs; CBD patients, 1×10^−4 M BeSO4): 3.5
- median ΔCPM (PBMCs; CBD patients, 1×10^−4 M BeSO4): 1514
- median SI (stimulation index) (PBMCs; control subjects, 1×10^−4 M BeSO4): 0.5
- median SI (stimulation index) (PBMCs; control subjects, 1×10^−5 M BeSO4): 0.7
- median percentage of IFN-γ-expressing CD4+ T cells (CD4+ T cells; eleven CBD patients): 0.29%
- median percentage of IL-2-expressing CD4+ T cells (CD4+ T cells; eleven CBD patients): 0.07%
- CD4+ T cells expressing IFN-γ (CD4+ T cells; [3]): 1.1%
- CD4+ T cells expressing IL-2 (CD4+ T cells; [3]): 0.5%
